The values that follow come from ChEMBL document CHEMBL3045491, “Antituberculosis activity of hydrazones derived from 4-fluorobenzoic acid hydrazide” (2009).

Each structure is given as a SMILES string.

The subject of the experiment is Mycobacterium tuberculosis. Description: Antitubercular activity against Mycobacterium tuberculosis H37Rv ATCC 27294 at 6.25 ug/ml by microplate alamar blue assay. It counts as functional. Background: Alamar Blue is a resazurin reagent that responds to reducing activity.

`C/C(=N\NC(=O)c1ccc(F)cc1)c1ccco1`: at 6.25 µg/mL the inhibition was 53%.

For the molecule `C/C(=N\NC(=O)c1ccc(F)cc1)c1ccncc1`, the inhibition – broadly, the percentage by which the read-out fell short of the control – at 6.25 µg/mL was 53%.

In the case of `C/C(=N\NC(=O)c1ccc(F)cc1)c1cccs1`, at 6.25 µg/mL the inhibition was 50%.

On to `O=C(N/N=C/c1c(Cl)cccc1Cl)c1ccc(F)cc1`, for which the inhibition at 6.25 µg/mL came to 85%.

For the molecule `O=C(N/N=C/c1cccc(Oc2ccccc2)c1)c1ccc(F)cc1`, the inhibition at 6.25 µg/mL was 84%.

Turning to `O=C(N/N=C/c1cc(Cl)cc(Cl)c1O)c1ccc(F)cc1`, the inhibition at 6.25 µg/mL worked out at 69%.

With `O=C(N/N=C/c1cc(Cl)cc(Cl)c1)c1ccc(F)cc1`, testing at 6.25 µg/mL gave an inhibition of 65%.

`O=C(N/N=C/c1ccc(Cl)cc1Cl)c1ccc(F)cc1` gave an inhibition at 6.25 µg/mL of 62%.

On to `CN(C)CCCOc1ccc(/C=N/NC(=O)c2ccc(F)cc2)cc1`, for which the inhibition at 6.25 µg/mL worked out at 58%.

Turning to `O=C(N/N=C/c1cccc(F)c1)c1ccc(F)cc1`, the inhibition at 6.25 µg/mL was 52%.

On to `C/C(=N\NC(=O)c1ccc(F)cc1)c1ccc[nH]1`, for which the inhibition at 6.25 µg/mL amounted to 66%.

Molecule `C/C(=N\NC(=O)c1ccc(F)cc1)c1ccc(Cl)s1` displayed an inhibition at 6.25 µg/mL of 64%.

As to `C/C(=N\NC(=O)c1ccc(F)cc1)c1ccccc1`, the inhibition at 6.25 µg/mL stood at 59%.

`C/C(=N\NC(=O)c1ccc(F)cc1)c1ccc(Br)s1` had an inhibition at 6.25 µg/mL of 59%.

The molecule `C=C/C(C)=N/NC(=O)c1ccc(F)cc1` came in with an inhibition at 6.25 µg/mL of 56%.

For `CC/C(=N\NC(=O)c1ccc(F)cc1)c1ccccc1`, at 6.25 µg/mL the inhibition was 53%.
